Assay results from US20230340011A1 (Asteroid Therapeutics, priority 2022, published 2023).

Assays:
[1] = molecular target: SREBP-2 (Homo sapiens (Human), UniProt Q12772); assay: In vitro assay SREBP-2: PathHunter U2OS SREBP-2 Nuclear Translocation Cell Line, U18666A-stimulated; format: cell-based; conditions: PathHunter U2OS SREBP-2 nuclear translocation cells, U18666A 10 μM, overnight (16 hours)
[2] = molecular target: LXRβ (Homo sapiens (Human), UniProt P55055); assay: In vitro assay LXRβ: PathHunter NHR CHO cells, LXRβ / Steroid Receptor Co-activator Peptide enzyme fragment complementation; format: cell-based; conditions: PathHunter NHR CHO cells, full-length human LXRβ and SRCP, chemiluminescent signal; read-out: LXRβ PPI
Sequence of LXRβ (P55055 whole entry, the tested form may be a part): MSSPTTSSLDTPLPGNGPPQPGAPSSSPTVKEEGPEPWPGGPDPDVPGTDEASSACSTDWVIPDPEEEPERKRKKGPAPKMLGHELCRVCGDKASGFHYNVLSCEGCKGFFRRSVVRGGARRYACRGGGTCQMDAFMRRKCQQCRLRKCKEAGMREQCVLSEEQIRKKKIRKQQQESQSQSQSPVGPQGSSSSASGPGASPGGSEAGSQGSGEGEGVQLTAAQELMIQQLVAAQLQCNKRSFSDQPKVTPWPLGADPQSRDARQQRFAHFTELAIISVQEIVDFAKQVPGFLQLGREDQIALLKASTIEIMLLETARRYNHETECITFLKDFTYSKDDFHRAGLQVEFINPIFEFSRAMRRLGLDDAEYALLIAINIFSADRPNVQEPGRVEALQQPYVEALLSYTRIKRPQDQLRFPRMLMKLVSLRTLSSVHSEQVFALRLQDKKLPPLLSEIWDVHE
Method in brief: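 Co-activator recruitment measured by chemiluminescence after signal generation. The CHO line carries full-length human LXRβ tagged with ProLink and an SRCP–enzyme acceptor fusion in the nucleus; cells sat overnight at 37° C before testing, in charcoal-dextran filtered serum medium with 1% final vehicle.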

`COC(=O)N1CCN(C(=O)CC[C@@H](C)[C@H]2CC[C@H]3[C@@H]4CC=C5C[C@@H](O)CC[C@]5(C)[C@H]4CC[C@]23C)[C@@H](C)C1` [Example 579, Methyl(S)-4-((R)-4-((3S,8S,9S,10R,13R,14S,17R)-3-hydroxy-10,13-dimethyl-2,3,4,7,8,9,10,11,12,13,14,15,16,17-tetradecahydro-1H-cyclopenta[a]phenanthren-17-yl)pentanoyl)-3-methylpiperazine-1-carboxylate] was tested, and the IC50 [1] was less than 250 nM and the EC50 [2] was greater than 10000 nM.

`C[C@H](CCC(=O)N1CCN(c2ccncc2)C[C@@H]1C)[C@H]1CC[C@H]2[C@@H]3CC=C4C[C@@H](O)CC[C@]4(C)[C@H]3CC[C@]12C` [Example 580, (R)-4-((3S,8S,9S,10R,13R,14S,17R)-3-hydroxy-10,13-dimethyl-2,3,4,7,8,9,10,11,12,13,14,15,16,17-tetradecahydro-1H-cyclopenta[a]phenanthren-17-yl)-1-((S)-2-methyl-4-(pyridin-4-yl)piperazin-1-yl)pentan-1-one] showed an IC50 [1] of less than 250 nM and an EC50 [2] greater than 10000 nM.

In the case of `C[C@H](CCC(=O)N1CCN(C(=O)c2cnccn2)C[C@@H]1C)[C@H]1CC[C@H]2[C@@H]3CC=C4C[C@@H](O)CC[C@]4(C)[C@H]3CC[C@]12C` [Example 581, (R)-4-((3S,8S,9S,10R,13R,14S,17R)-3-hydroxy-10,13-dimethyl-2,3,4,7,8,9,10,11,12,13,14,15,16,17-tetradecahydro-1H-cyclopenta[a]phenanthren-17-yl)-1-((S)-2-methyl-4-(pyrazine-2-carbonyl)piperazin-1-yl)pentan-1-one], the IC50 [1] is reported as less than 250 nM and the EC50 [2] is reported as greater than 10000 nM.

In the case of `C[C@H](CCC(=O)N1CCN(C(=O)N(C)C)C[C@@H]1C)[C@H]1CC[C@H]2[C@@H]3CC=C4C[C@@H](O)CC[C@]4(C)[C@H]3CC[C@]12C` [Example 582, (S)-4-((R)-4-((3S,8S,9S,10R,13R,14S,17R)-3-hydroxy-10,13-dimethyl-2,3,4,7,8,9,10,11,12,13,14,15,16,17-tetradecahydro-1H-cyclopenta[a]phenanthren-17-yl)pentanoyl)-N,N,3-trimethylpiperazine-1-carboxamide], the IC50 [1] is reported as less than 250 nM and the EC50 [2] is reported as greater than 10000 nM.

Molecule `CCC(=O)N1CCN(C(=O)CC[C@@H](C)[C@H]2CC[C@H]3[C@@H]4CC=C5C[C@@H](O)CC[C@]5(C)[C@H]4CC[C@]23C)[C@@H](C)C1` [Example 583, (4R)-4-[(1R,3aS,3bS,7S,9aR,9bS,11aR)-7-hydroxy-9a,11a-dimethyl-1H,2H,3H,3aH,3bH,4H,6H,7H,8H,9H,9aH,9bH,10H,11H,11aH-cyclopenta[a]phenanthren-1-yl]-1-[(2S)-2-methyl-4-propanoylpiperazin-1-yl]pentan-1-one] has an IC50 [1] of less than 250 nM and an EC50 [2] greater than 10000 nM.

For `C[C@H](CCC(=O)N1CCN(C(=O)OC2CC2)C[C@@H]1C)[C@H]1CC[C@H]2[C@@H]3CC=C4C[C@@H](O)CC[C@]4(C)[C@H]3CC[C@]12C` [Example 584], the IC50 [1] was less than 250 nM and the EC50 [2] was greater than 10000 nM.

`C[C@H](CCC(=O)N1CC[C@H](Oc2ccncc2)C[C@@H]1C)[C@H]1CC[C@H]2[C@@H]3CC=C4C[C@@H](O)CC[C@]4(C)[C@H]3CC[C@]12C` [Example 585, (R)-4-((3S,8S,9S,10R,13R,14S,17R)-3-hydroxy-10,13-dimethyl-2,3,4,7,8,9,10,11,12,13,14,15,16,17-tetradecahydro-1H-cyclopenta[a]phenanthren-17-yl)-1-((2S,4S)-2-methyl-4-(pyridin-4-yloxy)piperidin-1-yl)pentan-1-one] was tested, and the IC50 [1] was less than 250 nM and the EC50 [2] was 250 to 1000 nM.

Work on `C[C@H](CCC(=O)N1CCN(C(=O)c2cn(C)nn2)C[C@@H]1C)[C@H]1CC[C@H]2[C@@H]3CC=C4C[C@@H](O)CC[C@]4(C)[C@H]3CC[C@]12C` [Example 587, (R)-4-((3S,8S,9S,10R,13R,14S,17R)-3-hydroxy-10,13-dimethyl-2,3,4,7,8,9,10,11,12,13,14,15,16,17-tetradecahydro-1H-cyclopenta[a]phenanthren-17-yl)-1-((S)-2-methyl-4-(1-methyl-1H-1,2,3-triazole-4-carbonyl)piperazin-1-yl)pentan-1-one] yielded an IC50 [1] of less than 250 nM and an EC50 [2] greater than 10000 nM.

Molecule `C[C@H](CCC(=O)N1CCN(c2ccncn2)C[C@@H]1C)[C@H]1CC[C@H]2[C@@H]3CC=C4C[C@@H](O)CC[C@]4(C)[C@H]3CC[C@]12C` [Example 588, (4R)-4-[(1R,3aS,3bS,7S,9aR,9bS,11aR)-7-hydroxy-9a,11a-dimethyl-1H,2H,3H,3aH,3bH,4H,6H,7H,8H,9H,9aH,9bH,10H,11H,11aH-cyclopenta[a]phenanthren-1-yl]-1-[(2S)-2-methyl-4-(pyrimidin-4-yl)piperazin-1-yl]pentan-1-one] has an IC50 [1] of less than 250 nM and an EC50 [2] greater than 10000 nM.

`CC(C)OC(=O)N1CCN(C(=O)CC[C@@H](C)[C@H]2CC[C@H]3[C@@H]4CC=C5C[C@@H](O)CC[C@]5(C)[C@H]4CC[C@]23C)[C@@H](C)C1` [Example 589, Isopropyl(S)-4-((R)-4-((3S,8S,9S,10R,13R,14S,17R)-3-hydroxy-10,13-dimethyl-2,3,4,7,8,9,10,11,12,13,14,15,16,17-tetradecahydro-1H-cyclopenta[a]phenanthren-17-yl)pentanoyl)-3-methylpiperazine-1-carboxylate] showed an IC50 [1] of less than 250 nM and an EC50 [2] greater than 10000 nM.

`C[C@H](CCC(=O)N1CCN(C(=O)c2ccncc2)C[C@@H]1C)[C@H]1CC[C@H]2[C@@H]3CC=C4C[C@@H](O)CC[C@]4(C)[C@H]3CC[C@]12C` [Example 590, (R)-4-((3S,8S,9S,10R,13R,14S,17R)-3-hydroxy-10,13-dimethyl-2,3,4,7,8,9,10,11,12,13,14,15,16,17-tetradecahydro-1H-cyclopenta[a]phenanthren-17-yl)-1-((S)-4-isonicotinoyl-2-methylpiperazin-1-yl)pentan-1-one] was tested, and the IC50 [1] was less than 250 nM and the EC50 [2] was greater than 10000 nM.

`COC(=O)N1CCC(C(=O)NC[C@@H](C)[C@H]2CC[C@H]3[C@@H]4CC=C5C[C@@H](O)CC[C@]5(C)[C@H]4CC[C@]23C)CC1` [Example 591, Methyl 4-{[(2S)-2-[(1R,3aS,3bS,7S,9aR,9bS,11aS)-7-hydroxy-9a,11a-dimethyl-1H,2H,3H,3aH,3bH,4H,6H,7H,8H,9H,9aH,9bH,10H,11H,11aH-cyclopenta[a]phenanthren-1-yl]propyl]carbamoyl}piperidine-1-carboxylate] was tested, and the IC50 [1] was less than 250 nM and the EC50 [2] was greater than 10000 nM.

`COC(=O)N1CCN(C(=O)C[C@@H](C)[C@H]2CC[C@H]3[C@@H]4CC=C5C[C@@H](O)CC[C@]5(C)[C@H]4CC[C@]23C)CC1` [Example 593, Methyl 4-[(3R)-3-[(1R,3aS,3bS,7S,9aR,9bS,11aR)-7-hydroxy-9a,11a-dimethyl-1H,2H,3H,3aH,3bH,4H,6H,7H,8H,9H,9aH,9bH,10H,11H,11aH-cyclopenta[a]phenanthren-1-yl]butanoyl]piperazine-1-carboxylate] was tested, and the IC50 [1] was 1000 to 10000 nM and the EC50 [2] was greater than 10000 nM.

`C[C@H](CC(=O)N1CCN(C(=O)c2cnn(C)c2)CC1)[C@H]1CC[C@H]2[C@@H]3CC=C4C[C@@H](O)CC[C@]4(C)[C@H]3CC[C@]12C` [Example 594, (R)-3-((3S,8S,9S,10R,13R,14S,17R)-3-hydroxy-10,13-dimethyl-2,3,4,7,8,9,10,11,12,13,14,15,16,17-tetradecahydro-1H-cyclopenta[a]phenanthren-17-yl)-1-(4-(1-methyl-1H-pyrazole-4-carbonyl)piperazin-1-yl)butan-1-one] was tested, and the IC50 [1] was 1000 to 10000 nM and the EC50 [2] was greater than 10000 nM.
